Here are results for 1 molecule from patent publication USRE50957E1, “Molecular rheostat for cofactor balance” (The Regents of the University of California, priority 2016, dated 2026).

In general, Km refers to the substrate concentration at which the rate is half of its maximum.

Assay [1] concerns the target G. stearothermophilus glyceraldehyde-3-phosphate dehydrogenase (GsGap) mutant mGapDH (mGap, gapDH M6), D34A/L35R/T36K relative to SEQ ID NO:6 (Geobacillus stearothermophilus, UniProt P00362, D34A/L35R/T36K). The assay is described as follows: Kinetics and cofactor specificity of triple mutant mGap (mGapDH). The class given is biochemical, G. stearothermophilus ATCC12980. To be noted: 50 mM tris pH 7.5, 340 nm. Here is the method:
Enzyme activity and optimization. All of the enzymes used in this work were assayed. The enzymes were assayed in 50 mM tris buffer pH 7.5, 5 mM MgCl, and 5 mM KCl which mirrors the final reaction conditions. The activity of NAD(P)H producing or consuming reactions were monitored at 340 nm. The activity of ATP consuming enzymes were monitored using a coupled assay with Zwf and NADP^+ at 340 nm.
To implement the “molecular rheostat” module, GapDH enzyme was engineered that efficiently uses NADP^+. […] Although the cofactor specificity of GsGap has adjusted before by sequence-based design, the mutant only slightly preferred NADP^+ over NAD^+. To more strongly flip the cofactor specificity of GsGap the crystal structure was examined and basic residues introduced into the loop region proximate to the 2′OH of NAD′ that may help stabilize binding of a 2′ phosphate in NADP^+. A series of mutations were made altering residues D34, L35, and T36 of SEQ ID NO:6. The kinetics and specificity of the best enzyme, a D34A/L35R/T36K triple mutant (herein referred to as mGap), were obtained.

Assay [2] has as its target G. stearothermophilus glyceraldehyde-3-phosphate dehydrogenase (GsGap, gapDH WT), wild type, SEQ ID NO:6 (Geobacillus stearothermophilus, UniProt P00362). Briefly: Kinetics and cofactor specificity of wild type GsGap (gapDH WT). As to conditions: cofactor, 50 mM tris pH 7.5, 340 nm.

Chain of G. stearothermophilus glyceraldehyde-3-phosphate dehydrogenase (GsGap) mutant mGapDH (mGap, gapDH M6), D34A/L35R/T36K relative to SEQ ID NO:6 (P00362 whole entry D34A/L35R/T36K): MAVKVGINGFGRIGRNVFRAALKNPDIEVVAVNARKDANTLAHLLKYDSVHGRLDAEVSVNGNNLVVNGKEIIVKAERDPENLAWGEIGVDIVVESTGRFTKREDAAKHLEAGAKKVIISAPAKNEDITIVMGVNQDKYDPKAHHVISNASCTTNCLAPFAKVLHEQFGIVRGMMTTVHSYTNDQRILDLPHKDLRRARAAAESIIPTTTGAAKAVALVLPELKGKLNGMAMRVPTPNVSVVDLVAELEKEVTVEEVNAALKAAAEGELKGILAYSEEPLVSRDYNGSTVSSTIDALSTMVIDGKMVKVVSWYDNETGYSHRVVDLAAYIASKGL
Chain of G. stearothermophilus glyceraldehyde-3-phosphate dehydrogenase (GsGap, gapDH WT), wild type, SEQ ID NO:6 (P00362 whole entry): as the sequence (P00362 whole entry D34A/L35R/T36K) above, with A34D, R35L, K36T counted along it

Consider `NC(=O)c1ccc[n+]([C@@H]2O[C@H](COP(=O)([O-])OP(=O)(O)OC[C@H]3O[C@@H](n4cnc5c(N)ncnc54)[C@H](O)[C@@H]3O)[C@@H](O)[C@H]2O)c1` [NAD+, nicotinamide adenine dinucleotide], for which the kcat in assay [1] (cofactor varied) stood at 0.2 ± 0.04 µM/min/mg. In addition, the Km in assay [1] (cofactor) was 600 ± 400 µM; in assay [2], 1500 ± 300 µM.
